Source: patent US8343979B2, “Use of alkanoyl L-carnitine for the treatment of erectile dysfunction” (Sigma-Tau Industrie Farmaceutiche Riunite S.p.A., priority 2001, dated 2013)

Key:
[1] = tested on: erectile dysfunction, diabetics or nondiabetics patients; assay: preliminary experimental data on propionyl L-carnitine in erectile dysfunction; assay type: in vivo, human; conditions: not previously treated with sildenafil
[2] = tested on: diabetics patients suffering from E.D.; assay: clinical trial of propionyl L-carnitine plus sildenafil in sildenafil non-responders (dynamic colour Doppler ultrasonography, IIEF); assay type: in vivo, human; conditions: 2 g/day propionyl L-carnitine orally daily in combination with 50 mg sildenafil orally twice a week; diabetic E.D. patients not responder to sildenafil alone; after 3 and 6 months
Description: In this trial, 24 diabetics patients suffering from E.D. which were not responder to the treatment with sildenafil alone were enrolled.
2 g/day (1 g tablet twice a day) of propionyl L-carnitine were orally administered daily to the patients, and 50 mg sildenafil orally, twice a week.
In this trial, 30 diabetics patients suffering from E.D. which were not responder to the treatment with sildenafil alone were enrolled.
2 g/day (1 g tablet twice a day) of propionyl L-carnitine, were orally administered daily to the patients, and 50 mg sildenafil orally, twice a week.

SMILES: CCC(=O)O[C@H](CC(=O)[O-])C[N+](C)(C)C [propionyl L-carnitine]
- usefulness for treating the erectile dysfunction [1]: useful for treating the erectile dysfunction
- arterial flux by dynamic colour Doppler ultrasonography [2]: improvement of the arterial flux
- satisfactory clinical response evaluated with IIEF, share of treated patients [2]: 60%
